Values joined by “and” are separate entries in the source; they are usually repeats but may differ in a detail not shown here. Equal values may be shown once. Toxic doses and inconclusive results are not listed. No stated cut-off is given here; in the data, active means T/C of 150% or more; inactive means T/C below 125%.
Tested on: L1210 leukemia ip in BDF1 mice, survival T/C
Assay: NCI In Vivo Anticancer Drug Screen. Data for tumor model L1210 Leukemia (intraperitoneal) in B6D2F1 (BDF1) mice
Settings: endpoint: mean survival time, higher = longer survival
Outline: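 Value reflects the ratio of survival in compound-treated mice to survival in vehicle-treated controls, with both groups carrying the same transplanted tumor.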

[1] = dose: 100.0 mg/kg/injection, schedule: Q01DX001 (ip), vehicle: saline
[2] = dose: 200.0 mg/kg/injection, schedule: Q01DX001 (ip), vehicle: saline
[3] = dose: 400.0 mg/kg/injection, schedule: Q01DX001 (ip), vehicle: saline
[4] = dose: 100.0 mg/kg/injection, schedule: Q01DX001 (ip), vehicle: Klucel (hydroxypropylcellulose) (HPC)
[5] = dose: 100.0 mg/kg/injection, schedule: Q04DX003 (ip), vehicle: Klucel (hydroxypropylcellulose) (HPC)
[6] = dose: 200.0 mg/kg/injection, schedule: Q01DX001 (ip), vehicle: Klucel (hydroxypropylcellulose) (HPC)
[7] = dose: 200.0 mg/kg/injection, schedule: Q04DX003 (ip), vehicle: Klucel (hydroxypropylcellulose) (HPC)
[8] = dose: 400.0 mg/kg/injection, schedule: Q01DX001 (ip), vehicle: Klucel (hydroxypropylcellulose) (HPC)
[9] = dose: 400.0 mg/kg/injection, schedule: Q04DX003 (ip), vehicle: Klucel (hydroxypropylcellulose) (HPC)
[10] = dose: 100.0 mg/kg/injection, schedule: Q01DX009 (ip), vehicle: Klucel (hydroxypropylcellulose) (HPC)
[11] = dose: 50.0 mg/kg/injection, schedule: Q01DX001 (ip), vehicle: Klucel (hydroxypropylcellulose) (HPC)
[12] = dose: 100.0 mg/kg/injection, schedule: Q04DX002 (ip), vehicle: Klucel (hydroxypropylcellulose) (HPC)
[13] = dose: 200.0 mg/kg/injection, schedule: Q04DX002 (ip), vehicle: Klucel (hydroxypropylcellulose) (HPC)
[14] = dose: 100.0 mg/kg/injection, schedule: Q04DX003 (ip), vehicle: saline with Tween-80
[15] = dose: 200.0 mg/kg/injection, schedule: Q04DX003 (ip), vehicle: saline with Tween-80
[16] = dose: 400.0 mg/kg/injection, schedule: Q04DX003 (ip), vehicle: saline with Tween-80
[17] = dose: 50.0 mg/kg/injection, schedule: Q01DX009 (ip), vehicle: Klucel (hydroxypropylcellulose) (HPC)
[18] = dose: 200.0 mg/kg/injection, schedule: Q01DX009 (ip), vehicle: Klucel (hydroxypropylcellulose) (HPC)

Measured: T/C

CCCCCCCCCCSCCO
inactive: [1] 102 % of control | [2] 102 % of control | [3] 97 % of control

Cc1ccc(S(=O)(=O)N(C)c2cc(Cl)c(I)cc2Cl)cc1
inactive: [4] 97 % of control | [5] 93 % of control and 94 % of control | [6] 97 % of control | [7] 98 % of control | [8] 94 % of control | [9] 97 % of control and 98 % of control

Cn1nc(N)c2cc(C(N)=O)c(N)nc21
inactive: [10] 88 % of control | [5] 96 % of control | [7] 100 % of control | dose: 400.0 mg/kg/injection, schedule: Q01DX009 (ip), vehicle: Klucel (hydroxypropylcellulose) (HPC) 90 % of control | [9] 97 % of control

Nc1nc2c(ncn2-c2cccc(NC(=O)Nc3cc(S(=O)(=O)F)ccc3Cl)c2)c(=O)[nH]1
inactive: dose: 12.5 mg/kg/injection, schedule: Q01DX001 (ip), vehicle: Klucel (hydroxypropylcellulose) (HPC) 87 % of control | dose: 25.0 mg/kg/injection, schedule: Q01DX001 (ip), vehicle: Klucel (hydroxypropylcellulose) (HPC) 96 % of control | [11] 89 % of control

Nc1ccc(C(=O)O)c(F)c1
inactive: [12] 101 % of control | [13] 104 % of control | dose: 400.0 mg/kg/injection, schedule: Q04DX002 (ip), vehicle: Klucel (hydroxypropylcellulose) (HPC) 101 % of control

CC1NC(=S)N(c2ccc(S(=O)(=O)c3ccc(N4C(=O)C(C)NC4=S)cc3)cc2)C1=O (stereo unspecified)
inactive: [1] 102 % of control | [2] 98 % of control | [3] 98 % of control

O=C(/C=C\c1ccccc1)NCCCCNC(=O)/C=C/c1ccccc1
inactive: [1] 97 % of control | [2] 105 % of control | [3] 87 % of control

COC(=O)c1ccc(Cl)c(NN)c1
inactive: [14] 100 % of control | [15] 100 % of control | [16] 105 % of control

Cc1[nH]c(=S)[nH]c(=O)c1CN(CCO)CCO
inactive: [11] 123 % of control | [17] 96 % of control | dose: 50.0 mg/kg/injection, schedule: Q04DX003 (ip), vehicle: Klucel (hydroxypropylcellulose) (HPC) 108 % of control | [4] 101 % of control | [10] 101 % of control | [5] 102 % of control | [6] 101 % of control | [18] 123 % of control | [7] 91 % of control

CNC(=O)C(C)C1C(=O)/C(=C(O)/C=C/C(C)=C\C(C)C2OC3(C)OC(C=CC34CO4)C2C)C(=O)N1C1CCC(O)C(C)O1 (stereo unspecified)
inactive: dose: 100.0 mg/kg/injection, schedule: Q01DX009 (ip), vehicle: saline 111 % of control | dose: 100.0 mg/kg/injection, schedule: Q04DX003 (ip), vehicle: saline 97 % of control | dose: 200.0 mg/kg/injection, schedule: Q01DX009 (ip), vehicle: saline 101 % of control | dose: 200.0 mg/kg/injection, schedule: Q04DX003 (ip), vehicle: saline 105 % of control | dose: 400.0 mg/kg/injection, schedule: Q04DX003 (ip), vehicle: saline 107 % of control

COc1ccccc1CN1CCCOP1(=O)Nc1ccccc1 (stereo unspecified)
inactive: dose: 50.0 mg/kg/injection, schedule: Q01DX001 (ip), vehicle: carboxymethylcellulose (CMC) 91 % of control | dose: 100.0 mg/kg/injection, schedule: Q01DX001 (ip), vehicle: carboxymethylcellulose (CMC) 91 % of control | dose: 200.0 mg/kg/injection, schedule: Q01DX001 (ip), vehicle: carboxymethylcellulose (CMC) 93 % of control | dose: 400.0 mg/kg/injection, schedule: Q01DX001 (ip), vehicle: carboxymethylcellulose (CMC) 93 % of control

C=C1C(=O)O[C@@H]2/C=C(/C)[C@@]3(O)C=C[C@](C)(C[C@@H](OC(=O)/C(=C\C)COC(C)=O)[C@@H]12)O3
inactive: dose: 0.06 mg/kg/injection, schedule: Q01DX009 (ip), vehicle: carboxymethylcellulose (CMC) 102 % of control | dose: 0.12 mg/kg/injection, schedule: Q01DX009 (ip), vehicle: carboxymethylcellulose (CMC) 101 % of control | dose: 0.25 mg/kg/injection, schedule: Q01DX009 (ip), vehicle: carboxymethylcellulose (CMC) 98 % of control

O=C(O)c1ccccc1C(=O)Nc1cccc(C(F)(F)F)c1
inactive: [17] 101 % of control | [10] 101 % of control | [18] 99 % of control

O=C1C=CC(=O)N1c1nccs1
inactive: [14] 95 % of control | [15] 90 % of control | [16] 95 % of control

CC(=O)c1ccc2c(c1)sc1ccccc12
inactive: dose: 50.0 mg/kg/injection, schedule: Q01DX001 (ip), vehicle: other 96 % of control | dose: 100.0 mg/kg/injection, schedule: Q01DX001 (ip), vehicle: other 96 % of control | dose: 200.0 mg/kg/injection, schedule: Q01DX001 (ip), vehicle: other 96 % of control | dose: 400.0 mg/kg/injection, schedule: Q01DX001 (ip), vehicle: other 87 % of control

COC1OC2COC(c3ccccc3)OC2C(OC)C1OC (stereo unspecified)
inactive: dose: 12.5 mg/kg/injection, schedule: Q04DX002 (ip), vehicle: Klucel (hydroxypropylcellulose) (HPC) 100 % of control | dose: 25.0 mg/kg/injection, schedule: Q04DX002 (ip), vehicle: Klucel (hydroxypropylcellulose) (HPC) 91 % of control | dose: 50.0 mg/kg/injection, schedule: Q04DX002 (ip), vehicle: Klucel (hydroxypropylcellulose) (HPC) 103 % of control and 91 % of control | [12] 108 % of control | [13] 95 % of control

O=C(O)c1ccc(C(Cl)(Cl)Cl)cc1
inactive: dose: 50.0 mg/kg/injection, schedule: Q01DX009 (ip), vehicle: saline sonified 96 % of control | dose: 100.0 mg/kg/injection, schedule: Q01DX009 (ip), vehicle: saline sonified 115 % of control | [5] 102 % of control | dose: 200.0 mg/kg/injection, schedule: Q01DX009 (ip), vehicle: saline sonified 118 % of control | [7] 94 % of control

COC(=O)C1=C(\N2CCCC2)CCCCC/C=C\1C(=O)OC
inactive: dose: 75.0 mg/kg/injection, schedule: Q01DX009 (ip), vehicle: saline with Tween-80 97 % of control | dose: 150.0 mg/kg/injection, schedule: Q01DX009 (ip), vehicle: saline with Tween-80 103 % of control | dose: 300.0 mg/kg/injection, schedule: Q01DX009 (ip), vehicle: saline with Tween-80 107 % of control

CCOc1ccc(N)c([N+](=O)[O-])c1
inactive: [1] 100 % of control | [2] 107 % of control | [3] 105 % of control

O=C1C(=O)c2ccccc2C(O)=C1CC=C1CCCC1
inactive: dose: 100.0 mg/kg/injection, schedule: Q01DX001 (ip), vehicle: water 109 % of control | dose: 100.0 mg/kg/injection, schedule: Q01DX009 (ip), vehicle: water 105 % of control | dose: 200.0 mg/kg/injection, schedule: Q01DX009 (ip), vehicle: water 103 % of control

Cc1cc(S(=O)(=O)O)c(N)cc1Cl
inactive: [14] 99 % of control | [15] 97 % of control | [16] 100 % of control

OC(c1ccccc1)C1(N2CCCCC2)CCCCC1 (stereo unspecified)
inactive: [4] 94 % of control | [6] 100 % of control | [8] 96 % of control

NOc1ccc([N+](=O)[O-])cc1[N+](=O)[O-]
inactive: [14] 108 % of control

— PubChem BioAssay AID248 (DTP/NCI, 2004)
